Measurements from ChEMBL document CHEMBL1153342 (J Med Chem, 2009).
One block for each compound: values may come before it.

Key:
[1] = biological target: T1, Serine/threonine-protein kinase pim-2 (Homo sapiens, UniProt Q9P1W9); experiment: Inhibition of Pim2
[2] = biological target: Casein kinase II subunit alpha (Homo sapiens) (UniProt P68400); experiment: Inhibition of CK2alpha1 at 10 uM
[3] = biological target: Casein kinase II subunit alpha' (Homo sapiens) (UniProt P19784); experiment: Inhibition of CK2alpha2 at 10 uM
[4] = biological target: T1, Serine/threonine-protein kinase pim-2; experiment: Inhibition of Pim2 in presence of 1 uM ATP
[5] = biological target: T2, Serine/threonine-protein kinase pim-1 (Homo sapiens, UniProt P11309); experiment: Inhibition of Pim1 in presence of 1 uM ATP
[6] = Solubility at pH 7.4 after 48 hrs by HPLC; type: physicochemical; details: buffer
[7] = Metabolic stability in human liver microsomes assessed as half life by HPLC; type: ADME, Microsome
[8] = Permeability from basolateral to apical side of human Caco-2 cells at 50 uM by LC/MS-MS analysis; type: ADME, cell-based; details: read-out: permeability
[9] = Permeability from apical to basolateral side of human Caco-2 cells at 50 uM by LC/MS-MS analysis; type: ADME, cell-based; details: read-out: permeability
[10] = Solubility at pH 2.0 after 48 hrs by HPLC; type: physicochemical; details: buffer
[11] = biological target: T2, Serine/threonine-protein kinase pim-1; experiment: Inhibition of Pim1 after 15 mins by scintillation counting-based competition assay in presence of 100 uM [gamma33P]ATP

IC50 [1]: 0.017 µM
Structure (SMILES): NCC1CCN(c2cncc(-c3cccc(/C=C/C(=O)O)c3)n2)CC1

IC50 [1]: 2.2 µM
Structure (SMILES): O=C(O)/C=C/c1cccc(-c2cnccn2)c1

IC50 [1]: 0.01 µM
Structure (SMILES): O=C(O)/C=C/c1cccc(-c2cncc(N3CCCNCC3)n2)c1

IC50 [1]: > 8 µM
inhibition [2]: 14%
inhibition [3]: 7%
Structure (SMILES): COC(=O)/C=C/c1cccc(-c2cncc(N3CCCN(C)CC3)n2)c1

IC50 [4]: 0.022 µM
IC50 [5]: 0.033 µM
Structure (SMILES): NCCCCNc1cncc(-c2cccc(/C=C/C(=O)O)c2)n1

IC50 [1]: 0.025 µM
Structure (SMILES): O=C(O)/C=C/c1cccc(-c2cncc(NCC3CCNCC3)n2)c1

solubility at 48 h [6]: > 2000 µg/mL
half-life [7]: 2.65 h
Papp B→A at 50 µM [8]: 3.01 ×10⁻⁶ cm/s
Papp A→B at 50 µM [9]: 2.73 ×10⁻⁶ cm/s
solubility at 48 h [10]: > 2000 µg/mL
Structure (SMILES): CN1CCCN(c2cncc(-c3cccc(/C=C/C(=O)O)c3)n2)CC1

IC50 [11]: 0.12 µM
Structure (SMILES): O=C(O)c1ccc(-c2cnc3ccc(NCC4CC4)nn23)cc1

IC50 [4]: 0.48 µM
IC50 [5]: 0.37 µM
Structure (SMILES): COCCCNc1cncc(-c2cccc(/C=C/C(=O)O)c2)n1

inhibition [2]: 42%
inhibition [3]: 36%
Structure (SMILES): CN1CCCN(c2cncc(-c3cccc(/C=C/C(N)=O)c3)n2)CC1

IC50 [1]: 0.046 µM
IC50 [5]: 0.05 µM
Structure (SMILES): CN1CCCN(c2cccc(-c3cccc(/C=C/C(=O)O)c3)n2)CC1
